≈ marks a conversion by molar mass, not a printed value. Calls of active or inactive are those of the source. No cut-off for these calls is given here.
Legend:
[1] = system: Trypanosoma brucei brucei; test: Trypanocidal activity against Trypanosoma brucei brucei EATRO infected in mouse assessed as protection against trypanosomal infection at 2 mg/kg, ip BID for 4 days; type: functional, organism-based; design: dose 2 mg/kg
[2] = system: Trypanosoma brucei brucei; test: Trypanocidal activity against Trypanosoma brucei brucei 667 infected in mouse assessed as average day of relapse of trypanosomal infection at 10 mg/kg, ip BID for 14 days; type: functional; conditions: route intraperitoneal
[3] = system: Trypanosoma brucei rhodesiense; test: Trypanocidal activity against Trypanosoma brucei rhodesiense KETRI1992 infected in mouse assessed as average survival time at 10 mg/kg, ip BID administered 24 hrs postinfection; type: functional; conditions: route intraperitoneal
[4] = system: Trypanosoma brucei brucei; test: Trypanocidal activity against Trypanosoma brucei brucei EATRO infected in mouse assessed as mean survival time at 5 mg/kg, ip QD for 4 days; type: functional; conditions: route intraperitoneal
[5] = system: Trypanosoma brucei rhodesiense; test: Trypanocidal activity against Trypanosoma brucei rhodesiense KETRI1992 infected in mouse assessed as average survival time at 25 mg/kg, ip BID administered 24 hrs postinfection; type: functional; conditions: route intraperitoneal
[6] = system: Trypanosoma brucei brucei; test: Trypanocidal activity against Trypanosoma brucei brucei EATRO infected in mouse assessed as mean survival time at 50 mg/kg, ip BID for 4 days; type: functional; conditions: route intraperitoneal
[7] = system: Trypanosoma brucei brucei; test: Trypanocidal activity against Trypanosoma brucei brucei EATRO infected in mouse assessed as protection against trypanosomal infection at 25 mg/kg, ip BID for 4 days; type: functional, organism-based; design: dose 25 mg/kg
[8] = system: Trypanosoma brucei brucei; test: Trypanocidal activity against Trypanosoma brucei brucei EATRO infected in mouse assessed as protection against trypanosomal infection at 5 mg/kg, ip QD for 4 days; type: functional, organism-based; design: dose 5 mg/kg
[9] = system: Trypanosoma brucei rhodesiense; test: Trypanocidal activity against Trypanosoma brucei rhodesiense KETRI243 infected in mouse assessed as average survival time at 25 mg/kg, ip QD administered 24 hrs postinfection; type: functional; conditions: route intraperitoneal
[10] = system: Trypanosoma brucei brucei; test: Trypanocidal activity against Trypanosoma brucei brucei EATRO infected in mouse assessed as protection against trypanosomal infection at 10 mg/kg, ip BID for 4 days; type: functional, organism-based; design: dose 10 mg/kg
[11] = system: Trypanosoma brucei brucei; test: Trypanocidal activity against Trypanosoma brucei brucei EATRO infected in mouse assessed as mean survival time at 50 mg/kg, ip QD for 4 days; type: functional; conditions: route intraperitoneal
[12] = system: Trypanosoma brucei rhodesiense; test: Trypanocidal activity against Trypanosoma brucei rhodesiense KETRI2002 infected in mouse assessed as cure rate at 10 mg/kg, ip BID administered 24 hrs postinfection; type: functional; conditions: route intraperitoneal
[13] = system: Trypanosoma brucei brucei; test: Trypanocidal activity against Trypanosoma brucei brucei 667 infected in mouse assessed as average day of relapse of trypanosomal infection at 100 mg/kg, ip BID for 14 days; type: functional; conditions: route intraperitoneal
[14] = system: Trypanosoma brucei rhodesiense; test: Trypanocidal activity against Trypanosoma brucei rhodesiense KETRI1992 infected in mouse assessed as cure rate at 50 mg/kg, ip BID administered 24 hrs postinfection; type: functional; conditions: route intraperitoneal
[15] = system: Trypanosoma brucei rhodesiense; test: Ratio of Kinact to Kiapp for Trypanosoma brucei rhodesiense AdoMetDC
[16] = system: Trypanosoma brucei brucei; test: Trypanocidal activity against Trypanosoma brucei brucei EATRO infected in mouse assessed as mean survival time at 2 mg/kg, ip QD for 4 days; type: functional; conditions: route intraperitoneal
[17] = system: Trypanosoma brucei rhodesiense; test: Trypanocidal activity against Trypanosoma brucei rhodesiense KETRI1992 infected in mouse assessed as average survival time at 10 mg/kg, ip QD administered 24 hrs postinfection; type: functional; conditions: route intraperitoneal
[18] = system: Trypanosoma brucei brucei; test: Trypanocidal activity against Trypanosoma brucei brucei EATRO after 48 hrs; type: functional, organism-based
[19] = system: Trypanosoma brucei brucei; test: Trypanocidal activity against Trypanosoma brucei brucei EATRO infected in mouse assessed as cure rate at 1 mg/kg, ip QD for 4 days; type: functional; conditions: route intraperitoneal
[20] = system: Trypanosoma brucei brucei; test: Trypanocidal activity against Trypanosoma brucei brucei EATRO infected in mouse assessed as mean survival time at 5 mg/kg, ip BID for 4 days; type: functional; conditions: route intraperitoneal
[21] = system: Trypanosoma brucei brucei; test: Trypanocidal activity against Trypanosoma brucei brucei EATRO infected in mouse assessed as protection against trypanosomal infection at 10 mg/kg, ip QD for 4 days; type: functional, organism-based; design: dose 10 mg/kg
[22] = system: Trypanosoma brucei rhodesiense; test: Trypanocidal activity against Trypanosoma brucei rhodesiense KETRI243 infected in mouse assessed as average survival time at 50 mg/kg, ip QD administered 24 hrs postinfection; type: functional; conditions: route intraperitoneal
[23] = system: Trypanosoma brucei rhodesiense; test: Trypanocidal activity against Trypanosoma brucei rhodesiense KETRI2002 infected in mouse assessed as cure rate at 50 mg/kg, ip BID administered 24 hrs postinfection; type: functional; conditions: route intraperitoneal
[24] = system: Trypanosoma brucei brucei; test: Trypanocidal activity against Trypanosoma brucei brucei EATRO infected in mouse assessed as protection against trypanosomal infection at 50 mg/kg, ip BID for 4 days; type: functional, organism-based; design: dose 50 mg/kg
[25] = system: Trypanosoma brucei brucei; test: Trypanocidal activity against Trypanosoma brucei brucei EATRO infected in mouse assessed as protection against trypanosomal infection at 5 mg/kg, ip BID for 4 days; type: functional, organism-based; design: dose 5 mg/kg
[26] = system: Trypanosoma brucei rhodesiense; test: Trypanocidal activity against Trypanosoma brucei rhodesiense KETRI243 infected in mouse assessed as average survival time at 10 mg/kg, ip BID administered 24 hrs postinfection; type: functional; conditions: route intraperitoneal
[27] = system: Trypanosoma brucei brucei; test: Trypanocidal activity against Trypanosoma brucei brucei 667 infected in mouse assessed as average day of relapse of trypanosomal infection at 10 mg/kg, ip BID for 4 days; type: functional; conditions: route intraperitoneal
[28] = system: Trypanosoma brucei brucei; test: Trypanocidal activity against Trypanosoma brucei brucei EATRO infected in mouse assessed as mean survival time at 10 mg/kg, ip BID for 4 days; type: functional; conditions: route intraperitoneal
[29] = system: Trypanosoma brucei rhodesiense; test: Trypanocidal activity against Trypanosoma brucei rhodesiense KETRI2538 after 48 hrs; type: functional, organism-based; conditions: KETRI2538, 48 h
[30] = system: Trypanosoma brucei rhodesiense; test: Trypanocidal activity against Trypanosoma brucei rhodesiense KETRI2002 infected in mouse assessed as average survival time at 10 mg/kg, ip BID administered 24 hrs postinfection; type: functional; conditions: route intraperitoneal
[31] = system: Trypanosoma brucei brucei; test: Trypanocidal activity against Trypanosoma brucei brucei EATRO infected in mouse assessed as protection against trypanosomal infection at 50 mg/kg, ip QD for 4 days; type: functional, organism-based; design: dose 50 mg/kg
[32] = system: Trypanosoma brucei rhodesiense; test: Trypanocidal activity against Trypanosoma brucei rhodesiense KETRI1992 infected in mouse assessed as average survival time at 25 mg/kg, ip QD administered 24 hrs postinfection; type: functional; conditions: route intraperitoneal
[33] = system: Trypanosoma brucei rhodesiense; test: Trypanocidal activity against Trypanosoma brucei rhodesiense KETRI1992 infected in mouse assessed as protection against trypanosomal infection at 10 mg/kg, ip BID administered 24 hrs postinfection; type: functional, organism-based; design: dose 10 mg/kg
[34] = system: Trypanosoma brucei rhodesiense; test: Trypanocidal activity against Trypanosoma brucei rhodesiense KETRI243 infected in mouse assessed as average survival time at 50 mg/kg, ip BID administered 24 hrs postinfection; type: functional; conditions: route intraperitoneal
[35] = system: Trypanosoma brucei brucei; test: Trypanocidal activity against Trypanosoma brucei brucei 667 infected in mouse assessed as average day of relapse of trypanosomal infection at 10 mg/kg, ip BID for 21 days; type: functional; conditions: route intraperitoneal
[36] = system: Trypanosoma brucei rhodesiense; test: Trypanocidal activity against Trypanosoma brucei rhodesiense KETRI243 after 48 hrs; type: functional, organism-based; conditions: KETRI243, 48 h
[37] = system: Trypanosoma brucei brucei; test: Trypanocidal activity against Trypanosoma brucei brucei 667 infected in mouse assessed as average day of relapse of trypanosomal infection at 25 mg/kg, ip BID for 14 days; type: functional; conditions: route intraperitoneal
[38] = system: Trypanosoma brucei rhodesiense; test: Trypanocidal activity against Trypanosoma brucei rhodesiense KETRI243 infected in mouse assessed as average survival time at 25 mg/kg, ip BID administered 24 hrs postinfection; type: functional; conditions: route intraperitoneal
[39] = system: Trypanosoma brucei rhodesiense; test: Trypanocidal activity against Trypanosoma brucei rhodesiense KETRI243 infected in mouse assessed as protection against trypanosomal infection at 10 mg/kg, ip BID administered 24 hrs postinfection; type: functional, organism-based; design: dose 10 mg/kg
[40] = system: Trypanosoma brucei brucei; test: Trypanocidal activity against Trypanosoma brucei brucei EATRO infected in mouse assessed as protection against trypanosomal infection at 25 mg/kg, ip QD for 4 days; type: functional, organism-based; design: dose 25 mg/kg

Structure (SMILES): Cc1nc2c(N)ncnc2n1[C@@H]1O[C@H](CN(C)C/C=C\CN)[C@@H](O)[C@H]1O
- Activity [1]: Active
- MST [2]: 59.8 days
- MST [3]: 20.4 days
- MST [4]: >35 days
- MST [5]: 23 days
- MST [6]: >35 days
- Activity [7]: Active
- Activity [8]: Active
- MST [9]: 14 days
- Activity [10]: Active
- MST [11]: >35 days
- Activity [12]: 60%
- MST [13]: 72 days
- Activity [14]: 100%
- Activity [15]: 7.8 min⁻¹ M⁻¹
- MST [16]: >35 days
- MST [17]: 16.6 days
- IC50 [18]: 0.58 ng/mL (≈ 1.6 nM)
- Activity [19]: >50%
- MST [20]: >35 days
- Activity [21]: Active
- MST [22]: 17.2 days
- Activity [23]: 80%
- Activity [24]: Active
- Activity [25]: Active
- MST [26]: 14.8 days
- MST [27]: 36 days
- MST [28]: >35 days
- IC50 [29]: 0.3 ng/mL (≈ 0.825 nM)
- MST [30]: 21.5 days
- Activity [31]: Active
- MST [32]: 18.6 days
- Activity [33]: inactive
- MST [34]: 23.3 days
- MST [35]: 61.8 days
- IC50 [36]: 3.75 ng/mL (≈ 10.3 nM)
- MST [37]: 70.3 days
- MST [38]: 18.75 days
- Activity [39]: inactive
- Activity [40]: Active

Source: ChEMBL document CHEMBL1649532, “Trypanocidal activity of 8-methyl-5'-{[(Z)-4-aminobut-2-enyl]-(methylamino)}adenosine (Genz-644131), an adenosylmethionine decarboxylase inhibitor” (Antimicrob Agents Chemother, 2009)
